Results as given in patent publication US9090576B2, “2-substituted-p-quinone derivatives for treatment of oxidative stress diseases” (Edison Pharmaceuticals, Inc., priority 2008, dated 2015).

What was measured:
Assay type in all cases: cell-based
[1] = test system: Human dermal fibroblasts from Friedreich's Ataxia patients; assay: Rescue of BSO-stressed FRDA fibroblasts (Calcein AM viability); conditions: BSO-stressed FRDA fibroblasts (GM04078), less than about 150 nM, read-out: EC50, protection against FRDA
Outline: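 Patient FRDA fibroblasts (GM04078) seeded at 3,000 cells/well, given serially diluted compound from a 150 μM master solution, then stressed next day with 1 mM BSO.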

[2] = test system: human dermal fibroblasts from Huntington's patients; assay: Rescue of BSO-stressed fibroblasts from Huntington's patients (screen as Example A); conditions: Fibroblast, BSO-stressed Huntington's fibroblasts (GM 04281), less than about 150 nM, read-out: EC50, protection against Huntington's
Outline: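 Coriell Huntington's line GM 04281 plated at 3,000 cells/well and attached overnight at 37 °C. Survival was read by Calcein AM (1.2 μM, 50-70 min, RT) fluorescence at 485/525 nm, giving EC50.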

[3] = test system: human dermal fibroblasts from LHON patients; assay: Rescue of BSO-stressed fibroblasts from LHON patients (screen as Example A); conditions: Fibroblast, BSO-stressed LHON fibroblasts (GM03858), less than about 150 nM, read-out: EC50, protection against LHON
Outline: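 LHON patient fibroblasts (Coriell GM03858) at 3,000 cells/well were pre-treated overnight with compounds serially diluted from a 150 μM master solution. Surviving cells were stained with 1.2 μM Calcein AM for 50-70 min at RT and read by fluorescence (485/525 nm), giving EC50.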

[4] = test system: human dermal fibroblasts from CoQ10 deficient patients; assay: Rescue of BSO-stressed fibroblasts from CoQ10 deficient patients (screen similar to Example A); conditions: Fibroblast, BSO-stressed fibroblasts from CoQ10 deficient patients harboring a CoQ2 mutation, less than about 150 nM, read-out: EC50, protection against CoQ10 deficiency
Procedure: (§1) A culture with FRDA fibroblasts was started from a 1 ml vial with approximately 500,000 cells stored in liquid nitrogen. Cells were propagated in 10 cm cell culture dishes by splitting every third day in a ratio of 1:3 until nine plates were available. Once confluent, fibroblasts were harvested. For 54 micro titer plates (96 well-MTP) a total of 14.3 million cells (passage eight) were re-suspended in 480 ml medium, corresponding to 100 μl medium with 3,000 cells/well. The remaining cells were distributed in 10 cm cell culture plates (500,000 cells/plate) for propagation. The plates were incubated overnight at 37° C. in an atmosphere with 95% humidity and 5% CO2 to allow attachment of the cells to the culture plate.
(§2) MTP medium (243 μl) was added to a well of the microtiter plate. The test compounds were unfrozen, and 7.5 μl of a 5 mM stock solution was dissolved in the well containing 243 μl medium, resulting in a 150 μM master solution. Serial dilutions from the master solution were made. The period between the single dilution steps was kept as short as possible (generally less than 1 second).
(§3) Plates were kept overnight in the cell culture incubator. The next day, 10 μl of a 10 mM BSO solution were added to the wells, resulting in a 1 mM final BSO concentration. Forty-eight hours later, three plates were examined under a phase-contrast microscope to verify that the cells in the 0% control (wells E1-H1) were clearly dead. The medium from all plates was discarded, and the remaining liquid was removed by gently tapping the plate inversed onto a paper towel.
(§4) 100 μl of PBS containing 1.2 μM Calcein AM were then added to each well. The plates were incubated for 50-70 minutes at room temperature. After that time the PBS was discarded, the plate gently tapped on a paper towel and fluorescence (excitation/emission wavelengths of 485 nm and 525 nm, respectively) was read on a Gemini fluorescence reader. Data was imported into Microsoft Excel (EXCEL is a registered trademark of Microsoft Corporation for a spreadsheet program) and used to calculate the EC50 concentration for each compound.
Compounds of the invention were tested using a screen similar to the one described in Example A, but substituting FRDA cells with cells obtained from CoQ10 deficient patients harboring a CoQ2 mutation. The compounds were tested for their ability to rescue human dermal fibroblasts from CoQ10 deficient patients from oxidative stress.

[5] = test system: human dermal fibroblasts from Parkinson's Disease patients; assay: Rescue of BSO-stressed fibroblasts from Parkinson's Disease patients (screen as Example A); conditions: Fibroblast, BSO-stressed Parkinson's Disease fibroblasts (AG20439), less than about 150 nM, read-out: EC50, protection against PD
Procedure: as §1, §2, §3, §4
Compounds of the invention were screened as described in Example A, but substituting FRDA cells with Parkinson's Disease (PD) cells obtained from the Coriell Cell Repositories (Camden, N.J.; repository number AG20439). The compounds were tested for their ability to rescue human dermal fibroblasts from Parkinson's Disease patients from oxidative stress.

Measured: EC50

CC1=C(C)C(=O)C(CCNC(=O)NCc2ccc(C(F)(F)F)cc2)=C(C)C1=O [1-(4-(trifluoromethyl)benzyl)-3-(2-(2,4,5-trimethyl-3,6-dioxocyclohexa-1,4-dienyl)ethyl)urea]
not listed: [5]
< 150 nM: all other assays above

CC1=C(C)C(=O)C(CCNC(=O)N(C)Cc2ccc(Cl)cc2)=C(C)C1=O [1-(4-chlorobenzyl)-1-methyl-3-(2-(2,4,5-trimethyl-3,6-dioxocyclohexa-1,4-dienyl)ethyl)urea]
< 150 nM: [2] | [3] | [4]

COc1ccc(C2(C(=O)NCCC3=C(C)C(=O)C(C)=C(C)C3=O)CC2)cc1 [1-(4-methoxyphenyl)-N-(2-(2,4,5-trimethyl-3,6-dioxocyclohexa-1,4-dienyl)ethyl)cyclopropanecarboxamide]
< 150 nM: [1] | [4]

CC1=C(C)C(=O)C(CCNC(=O)C2(c3ccccc3)CC2)=C(C)C1=O [1-phenyl-N-(2-(2,4,5-trimethyl-3,6-dioxocyclohexa-1,4-dienyl)ethyl)cyclopropanecarboxamide]
< 150 nM: [1] | [3] | [4]

COc1ccccc1CC(=O)NCCC1=C(C)C(=O)C(C)=C(C)C1=O [2-(2-methoxyphenyl)-N-(2-(2,4,5-trimethyl-3,6-dioxocyclohexa-1,4-dienyl)ethyl)acetamide]
< 150 nM: [1] | [4]

CC1=C(C)C(=O)C(CCCC(=O)N2CCCc3ccccc32)=C(C)C1=O [2-(4-(3,4-dihydroquinolin-1 (2H)-yl)-4-oxobutyl)-3,5,6-trimethylcyclohexa-2,5-diene-1,4-dione]
not listed: [5]
< 150 nM: all other assays above

CC1=C(C)C(=O)C(CCNC(=O)C(C)c2ccc(Cl)cc2)=C(C)C1=O (stereo not shown) [2-(4-chlorophenyl)-N-(2-(2,4,5-trimethyl-3,6-dioxocyclohexa-1,4-dienyl)ethyl)propanamide]
< 150 nM: [1] | [2] | [4]

CC1=C(C)C(=O)C(CCNC(=O)C(C)c2ccc(F)cc2)=C(C)C1=O (stereo not shown) [2-(4-fluorophenyl)-N-(2-(2,4,5-trimethyl-3,6-dioxocyclohexa-1,4-dienyl)ethyl)propanamide]
< 150 nM: [1] | [4]

COc1ccc(CC(=O)NCCC2=C(C)C(=O)C(C)=C(C)C2=O)cc1 [2-(4-methoxyphenyl)-N-(2-(2,4,5-trimethyl-3,6-dioxocyclohexa-1,4-dienyl)ethyl)acetamide]
not listed: [5]
< 150 nM: all other assays above

CC1=C(C)C(=O)C(CCNC(=O)Cc2cccc3ccccc23)=C(C)C1=O [2-(naphthalen-1-yl)-N-(2-(2,4,5-trimethyl-3,6-dioxocyclohexa-1,4-dienyl)ethyl)acetamide]
< 150 nM: [1] | [4]

CC1=C(C)C(=O)C(CCNC(=O)C(O)c2ccc(C(F)(F)F)cc2)=C(C)C1=O (stereo not shown) [2-hydroxy-2-(4-(trifluoromethyl)phenyl)-N-(2-(2,4,5-trimethyl-3,6-dioxocyclohexa-1,4-dienyl)ethyl)acetamide]
not listed: [5]
< 150 nM: all other assays above

CC1=C(C)C(=O)C(CCNC(=O)CCc2ccc(F)cc2)=C(C)C1=O [3-(4-fluorophenyl)-N-(2-(2,4,5-trimethyl-3,6-dioxocyclohexa-1,4-dienyl)ethyl)propanamide]
< 150 nM: [1] | [4]

CC1=C(C)C(=O)C(CCNC(=O)c2ccc(C#N)cc2)=C(C)C1=O [4-cyano-N-(2-(2,4,5-trimethyl-3,6-dioxocyclohexa-1,4-dienyl)ethyl)benzamide]
< 150 nM: [1] | [3] | [4]

CC1=C(C)C(=O)C(CCCC(=O)Nc2cc(Cl)ccc2Cl)=C(C)C1=O [N-(2,5-dichlorophenyl)-4-(2,4,5-trimethyl-3,6-dioxocyclohexa-1,4-dienyl)butanamide]
not listed: [4]
< 150 nM: all other assays above

CC1=C(C)C(=O)C(CCCC(=O)Nc2cc(F)ccc2F)=C(C)C1=O [N-(2,5-difluorophenyl)-4-(2,4,5-trimethyl-3,6-dioxocyclohexa-1,4-dienyl)butanamide]
not listed: [4]
< 150 nM: all other assays above

CC1=C(C)C(=O)C(CCCC(=O)Nc2c(Cl)cccc2Cl)=C(C)C1=O [N-(2,6-dichlorophenyl)-4-(2,4,5-trimethyl-3,6-dioxocyclohexa-1,4-dienyl)butanamide]
not listed: [4]
< 150 nM: all other assays above

CC1=C(C)C(=O)C(CCCC(=O)Nc2c(F)cccc2F)=C(C)C1=O [N-(2,6-difluorophenyl)-4-(2,4,5-trimethyl-3,6-dioxocyclohexa-1,4-dienyl)butanamide]
not listed: [4]
< 150 nM: all other assays above

CC1=C(C)C(=O)C(CCCC(=O)Nc2ccc(Cl)c(Cl)c2)=C(C)C1=O [N-(3,4-dichlorophenyl)-4-(2,4,5-trimethyl-3,6-dioxocyclohexa-1,4-dienyl)butanamide]
not listed: [4]
< 150 nM: all other assays above

CC1=C(C)C(=O)C(CCCC(=O)Nc2ccc(F)c(F)c2)=C(C)C1=O [N-(3,4-difluorophenyl)-4-(2,4,5-trimethyl-3,6-dioxocyclohexa-1,4-dienyl)butanamide]
not listed: [4]
< 150 nM: all other assays above

CC1=C(C)C(=O)C(CCCC(=O)Nc2cc(F)cc(F)c2)=C(C)C1=O [N-(3,5-difluorophenyl)-4-(2,4,5-trimethyl-3,6-dioxocyclohexa-1,4-dienyl)butanamide]
not listed: [4]
< 150 nM: all other assays above

COc1ccc(NC(=O)CCCC2=C(C)C(=O)C(C)=C(C)C2=O)cc1 [N-(4-methoxyphenyl)-4-(2,4,5-trimethyl-3,6-dioxocyclohexa-1,4-dienyl)butanamide]
not listed: [4]
< 150 nM: all other assays above

CC1=C(C)C(=O)C(CCCC(=O)Nc2ccccn2)=C(C)C1=O [N-(pyridin-2-yl)-4-(2,4,5-trimethyl-3,6-dioxocyclohexa-1,4-dienyl)butanamide]
not listed: [4]
< 150 nM: all other assays above

CC1=C(C)C(=O)C(CCCC(=O)Nc2ccncc2)=C(C)C1=O [N-(pyridin-4-yl)-4-(2,4,5-trimethyl-3,6-dioxocyclohexa-1,4-dienyl)butanamide]
not listed: [4]
< 150 nM: all other assays above

CC1=C(C)C(=O)C(CCC(C)C(=O)NCc2ccccc2)=C(C)C1=O (stereo not shown) [N-benzyl-2-methyl-4-(2,4,5-trimethyl-3,6-dioxocyclohexa-1,4-dienyl)butanamide]
not listed: [4]
< 150 nM: all other assays above

CC1=C(C)C(=O)C(CCCC(=O)NCCc2ccccc2)=C(C)C1=O [N-phenethyl-4-(2,4,5-trimethyl-3,6-dioxocyclohexa-1,4-dienyl)butanamide]
< 150 nM: [2] | [3] | [4]
